Measurements: patent US8569302B2, “Inhibitors of flaviviridae viruses” (Gilead Sciences, Inc., priority 2009, dated 2013)

Tested on: human hepatoma Huh-7 cell line harboring a HCV replicon
Test: HCV replicon assay (inhibition of viral replication, luciferase readout)
Assay type: cell-based
Settings: Hepatitis C virus, 72 h, Huh-7 HCV replicon cells, 3 days incubation
Outline: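 Huh-7 replicon cells were exposed to 10-point 3-fold compound dilutions (0.44% DMSO) for 3 days at 37 °C. Replicon replication was read by Dual-Glo luciferase, with background from protease-inhibitor wells subtracted, and viability by calcein AM. EC50/CC50 came from a Hill-equation fit versus DMSO controls.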

| Structure (SMILES) | inhibition at 2 µM |
| --- | --- |
| CC1CCC(C(=O)N(c2cc(C#CC(C)(C)C)sc2C(=O)O)[C@H]2CC[C@H](Oc3cncc(CN4CCOCC4)c3)CC2)CC1 (stereo partly drawn) [Compound 194, 3-[[4-(5-morpholin-4-ylmethyl-pyridin-3-yloxy)-cyclohexyl]-(4-methyl-cyclohexanecarbonyl)-amino]-5-(3,3-dimethyl-but-1-ynyl)-thiophene-2-carboxylic acid] | 99.9% |
| CC1CCC(C(=O)N(c2cc(C#CC(C)(C)C)sc2C(=O)O)[C@H]2CC[C@H](Oc3cnccc3CN3CCC(N(C)C)C3)CC2)CC1 (stereo partly drawn) [Compound 195, 3-[[-4-(3-dimethylamino-pyrrolidin-1-ylmethyl-pyridin-3-yloxy)-cyclohexyl]-(4-methyl-cyclohexanecarbonyl)-amino]-5-(3,3-dimethyl-but-1-ynyl)-thiophene-2-carboxylic acid] | 99.7% |
| CC1CCC(C(=O)N(c2cc(C#CC(C)(C)C)sc2C(=O)O)[C@H]2CC[C@H](Oc3cnccc3CN3CCCC3)CC2)CC1 (stereo partly drawn) [Compound 196, 3-[[-4-(4-pyrrolidin-1-ylmethyl-pyridin-3-yloxy)-cyclohexyl]-(4-methyl-cyclohexanecarbonyl)-amino]-5-(3,3-dimethyl-but-1-ynyl)-thiophene-2-carboxylic acid] | 100% |
| CC1CCC(C(=O)N(c2cc(C#CC(C)(C)C)sc2C(=O)O)[C@H]2CC[C@H](Oc3cnccc3CN3CCC3)CC2)CC1 (stereo partly drawn) [Compound 197, 3-[[-4-(4-azetidin-1-ylmethyl-pyridin-3-yloxy)-cyclohexyl]-(4-methyl-cyclohexanecarbonyl)-amino]-5-(3,3-dimethyl-but-1-ynyl)-thiophene-2-carboxylic acid] | 99.9% |
| CC1CCC(C(=O)N(c2cc(C#CC(C)(C)C)sc2C(=O)O)[C@H]2CC[C@H](Oc3cnccc3CN(C)C)CC2)CC1 (stereo partly drawn) [Compound 198, 3-[[-4-(4-dimethylaminomethyl-pyridin-3-yloxy)-cyclohexyl]-(4-methyl-cyclohexanecarbonyl)-amino]-5-(3,3-dimethyl-but-1-ynyl)-thiophene-2-carboxylic acid] | 99.9% |
| CC1CCC(C(=O)N(c2cc(C#CC(C)(C)C)sc2C(=O)O)[C@H]2CC[C@H](Oc3ccnc(CN4CCCC4)c3)CC2)CC1 (stereo partly drawn) [Compound 199, 3-[[-4-(2-pyrrolidin-1-ylmethyl-pyridin-4-yloxy)-cyclohexyl]-(4-methyl-cyclohexanecarbonyl)-amino]-5-(3,3-dimethyl-but-1-ynyl)-thiophene-2-carboxylic acid] | 99.9% |
| CC1CCC(C(=O)N(c2cc(C#CC(C)(C)C)sc2C(=O)O)[C@H]2CC[C@H](Oc3ccnc(CN(C)C)c3)CC2)CC1 (stereo partly drawn) [Compound 200, 3-[[-4-(2-dimethylaminomethyl-pyridin-4-yloxy)-cyclohexyl]-(4-methyl-cyclohexanecarbonyl)-amino]-5-(3,3-dimethyl-but-1-ynyl)-thiophene-2-carboxylic acid] | 100% |
| Cn1cnc(S(=O)(=O)N2CCC(N(c3cc(C#CC(C)(C)C)sc3C(=O)O)C(=O)[C@H]3CC[C@H](C)CC3)CC2)c1 [Compound 201, 5-(3,3-Dimethyl-but-1-ynyl)-3-{(4-methyl-cyclohexanecarbonyl)-[1-(1-methyl-1′-1-imidazole-4-sulfonyl)-piperidin-4-yl]-amino}-thiophene-2-carboxylic acid] | 100% |
| CC(C)(C)C#Cc1cc(N(C(=O)[C@H]2CC[C@H](C)CC2)C2CCN(S(=O)(=O)c3nnc[nH]3)CC2)c(C(=O)O)s1 [Compound 202, 5-(3,3-Dimethyl-but-1-ynyl)-3-{(4-methyl-cyclohexanecarbonyl)-[1-(4H-[1,2,4]triazole-3-sulfonyl)-piperidin-4-yl]-amino}-thiophene-2-carboxylic acid] | 96.4% |
| Cn1nccc1S(=O)(=O)N1CCC(N(c2cc(C#CC(C)(C)C)sc2C(=O)O)C(=O)[C@H]2CC[C@H](C)CC2)CC1 [Compound 203, 5-(3,3-Dimethyl-but-1-ynyl)-3-{(4-methyl-cyclohexanecarbonyl)-[1-(2-methyl-2H-pyrazole-3-sulfonyl)-piperidin-4-yl]-amino}-thiophene-2-carboxylic acid] | 99.8% |
| CN(C)c1ncc(S(=O)(=O)N2CCC(N(c3cc(C#CC(C)(C)C)sc3C(=O)O)C(=O)[C@H]3CC[C@H](C)CC3)CC2)cn1 [Compound 204, 3-[[1-(2-Dimethylamino-pyrimidine-5-sulfonyl)-piperidin-4-yl]-(4-methyl-cyclohexanecarbonyl)-amino]-5-(3,3-dimethyl-but-1-ynyl)-thiophene-2-carboxylic acid] | 99.1% |
| CC(C)(C)C#Cc1cc(N(C(=O)[C@H]2CC[C@H](C)CC2)C2CCN(S(=O)(=O)c3ccsc3)CC2)c(C(=O)O)s1 [Compound 205, 5-(3,3-Dimethyl-but-1-ynyl)-3-{(4-methyl-cyclohexanecarbonyl)-[1-(thiophene-3-sulfonyl)-piperidin-4-yl]-amino}-thiophene-2-carboxylic acid] | 99.9% |
| Cc1nc(S(=O)(=O)N2CCC(N(c3cc(C#CC(C)(C)C)sc3C(=O)O)C(=O)[C@H]3CC[C@H](C)CC3)CC2)cn1C [Compound 206, 5-(3,3-Dimethyl-but-1-ynyl)-3-[[1-(1,2-dimethyl-1H-imidazole-4-sulfonyl)-piperidin-4-yl]-(4-methyl-cyclohexanecarbonyl)-amino]-thiophene-2-carboxylic acid] | 100% |
| CC(C)(C)C#Cc1cc(N(C(=O)[C@H]2CC[C@H](C)CC2)C2CCN(S(=O)(=O)c3cccs3)CC2)c(C(=O)O)s1 [Compound 207, 5-(3,3-Dimethyl-but-1-ynyl)-3-{(4-methyl-cyclohexanecarbonyl)-[1-(thiophene-2-sulfonyl)-piperidin-4-yl]-amino}-thiophene-2-carboxylic acid] | 99.8% |
| CC(C)(C)C#Cc1cc(N(C(=O)[C@H]2CC[C@H](C)CC2)C2CCN(S(=O)(=O)c3cnc(=O)[nH]c3)CC2)c(C(=O)O)s1 [Compound 208, 5-(3,3-Dimethyl-but-1-ynyl)-3-{(4-methyl-cyclohexanecarbonyl)-[1-(2-oxo-1,2-dihydro-pyrimidine-5-sulfonyl)-piperidin-4-yl]-amino}-thiophene-2-carboxylic acid] | 63.8% |
| CC(C)(C)C#Cc1cc(N(C(=O)[C@H]2CC[C@H](C)CC2)C2CCN(S(=O)(=O)c3ccccn3)CC2)c(C(=O)O)s1 [Compound 209, 5-(3,3-Dimethyl-but-1-ynyl)-3-{(4-methyl-cyclohexanecarbonyl)-[1-(pyridine-2-sulfonyl)-piperidin-4-yl]-amino}-thiophene-2-carboxylic acid] | 100% |
| CC(C)(C)C#Cc1cc(N(C(=O)[C@H]2CC[C@H](C)CC2)C2CCN(S(=O)(=O)c3cccnc3)CC2)c(C(=O)O)s1 [Compound 210, 5-(3,3-Dimethyl-but-1-ynyl)-3-{(4-methyl-cyclohexanecarbonyl)-[1-(pyridine-3-sulfonyl)-piperidin-4-yl]-amino}-thiophene-2-carboxylic acid] | 100% |
| CC(C)(C)C#Cc1cc(N(C(=O)[C@H]2CC[C@H](C)CC2)[C@H]2CCN(S(=O)(=O)c3ccsc3)C2)c(C(=O)O)s1 [Compound 211, 5-(3,3-Dimethyl-but-1-ynyl)-3-{(4-methyl-cyclohexanecarbonyl)-[1-(thiophene-3-sulfonyl)-pyrrolidin-3-yl]-amino}-thiophene-2-carboxylic acid] | 99.7% |
